Experimental data published in US10689399B2, “Substituted 3,4,5,6,8,10,14,14a-octahydro-2h-2,6-methanopyrido[1′,2′:4,5]pyrazino[2,1-b][1,3]oxazocines and methods for treating viral infections” (Gilead Sciences, Inc., priority 2012, dated 2020).

Tested on: HIV-IIIb
Assay: Antiviral assay in MT4 cells
Format: cell-based
Details: Human immunodeficiency virus 1, IIIB, MT4, 120 h, MT4 cells infected with HIV-IIIb, 5 days, CellTiter-Glo; read-out: EC50 nM in MT-4
In short: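 MT4 cells pre-infected with HIV-IIIb (0.004 m.o.i.) at 37 °C, or mock-infected, then seeded at 2000 cells/well onto 3-fold serially diluted compound (10 concentrations, quadruplicate) in RPMI 1640 with 10% FBS. After 5 days at 37 °C, cell viability read by CellTiter-Glo luminescence.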

Row | EC50 [nM] | SMILES
1 | 2.2 | O=C(NCc1ccc(F)cc1F)c1cn2c(c(O)c1=O)C(=O)N1[C@H]3CC[C@H](CC3)[C@H]1C2 [Compound 100, (1R,4R,12aS)—N-(2,4-difluorobenzyl)-7-hydroxy-6,8-dioxo-1,2,3,4,6,8,12,12a-octahydro-1,4-ethanodipyrido[1,2-a:1′,2′-d]pyrazine-9-carboxamide]
2 | 2.1 | O=C(NCc1c(F)cc(F)cc1F)c1cn2c(c(O)c1=O)C(=O)N1[C@H]3CC[C@H](CC3)[C@H]1C2 [Compound 101, (1R,4R,12aS)-7-hydroxy-6,8-dioxo-N-(2,4,6-trifluorobenzyl)-1,2,3,4,6,8,12,12a-octahydro-1,4-ethanodipyrido[1,2-a:1′,2′-d]pyrazine-9-carboxamide]
3 | 2.3 | O=C(NCc1c(F)cc(F)cc1F)c1cn2c(c(O)c1=O)C(=O)N1[C@H]3CC[C@H](CC3)[C@@H]1C2 [Compound 102, (1S,4S,12aR)-7-hydroxy-6,8-dioxo-N-(2,4,6-trifluorobenzyl)-1,2,3,4,6,8,12,12a-octahydro-1,4-ethanodipyrido[1,2-a:1′,2′-d]pyrazine-9-carboxamide]

Row | SMILES | EC50 [nM]
4 | O=C(NCc1c(F)cc(F)cc1F)c1cn2c(c(O)c1=O)C(=O)N1[C@@H]3C[C@@H](C(F)C3F)[C@@H]1C2 (stereo partly drawn) [Compound 103, (1R,4R,12aR)-2,3-difluoro-7-hydroxy-6,8-dioxo-N-(2,4,6-trifluorobenzyl)-1,2,3,4,6,8,12,12a-octahydro-1,4-methanodipyrido[1,2-a:1′,2′-d]pyrazine-9-carboxamide] | 10.3
